Molecules are shown by their SMILES.

Assay [1] addresses p45 v-abl tyrosine kinase. Kind of assay: in-vitro p45 v-abl kinase assay ((Val^5)-Angiotension II phosphorylation). In kind it is biochemical, Abelson murine leukaemia virus. To be noted: ATP 50 μM, fixed peptide concentration, 40 ng abl-kinase, pH 8.0, 30° C.; read-out: Inhibition of p45 kinase, IC50 v-abl. The protocol:
p45 v-abl Kinase Purification
The enzyme used in our test was the p45 v-abl tyrosine kinase which represents the catalytic domain of the Abelson tyrosine kinase (isolated from the Abelson murine leukaemia virus). The p45 v-abl kinase was produced and isolated as described by Wang et al. in J. Biol. Chem. 260, 64 (1985) and by Ferguson et al. in J. Biol. Chem. 260, 3652 (1985) and in Biochem. J. 257, 321 (1989).
(Val^5)-Angiotension II phosphorylation was performed by incubation with 40 ng of purified abl-kinase and (γ-^32 p)-ATP, in 50 μl of buffer containing Tris-HCl 25 mM, pH 8.0, MgCl2 10 mM and dithiothreitol 0.1 mM (kinase buffer). The reaction mixture was incubated for the indicated time at 30° C. and the reaction stopped by adding 50 μl of 5% trichloroacetic acid. After a brief incubation on ice, tubes were centrifuged. The supernatants were spotted on phosphocellulose paper squares (Whatman P-81) and washed extensively in acetic acid. The radioactivity bound to dried phosphocellulose squares was measured in a liquid scintillation counter. IC50 values were calculated from triplicated determinations of each experimental point. Each inhibitor was tested at concentrations ranging from […] in the presence of fixed concentrations of peptide (2 Mm) and ATP (50 μM). […]

Assay [2] concerns K562 cells. Kind of assay: K562 cell growth inhibition assay. In kind it is cell-based. To be noted: human chronic myeloid leukemia K562 cells, 72 h, cell count vs untreated control. On the procedure:
K562 Cell Growth Inhibition Assay
K562 cells, a human myelogenous leukemia cell line, were seeded into a 24 wells tissue culture plate (Falcon 3047) (10000/well) in the presence of increasing concentrations of the compounds. After 72 h, cells were harvested and were counted using a cell counter (Coulter Counter-ZM). The percent of inhibition was evaluated in respect to the untreated control cells.
The inhibitory activity data for a representative group of compounds according to the present invention, obtained both in the in-vitro p45 v-abl kinase assay and in the in-vivo human chronic myeloid leukemia K562 cell growth inhibition assay described above, are set out in following Table 1.

`COc1ccc2[nH]cc(C=C3C(=O)Nc4ccc(NC(=O)[C@H](C)NC(=O)[C@@H](N)CCC(=O)O)cc43)c2c1` [FCE 28437, 5-L-glutamyl-L-alanylamino-3-[(5'-methoxy-3'-indolyl)methylene]-2-indolinone]: the figures for the IC50 in assay [1] and in assay [2] were 0.5 µM and 14.8 µM, respectively.
The matching figures for `O=C1Nc2ccc(C(=O)CN3CCCCC3)cc2C1=Cc1c[nH]c2ccccc12` [FCE 28484, 3-(indol-3-ylmethylene)-5-(2-piperidin-1-yl-acetyl)-2-indolinone]: 0.78 µM and 4.82 µM.
